# According to PubChem BioAssay (NCI):
#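 1) Cells in 96-well plates. 2) Compound, 48 h, 5 concentrations. 3) Linear interpolation between surrounding doses. 4) Unreached endpoint = highest concentration. TGI marks complete inhibition of growth.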
# Columns and labels:
# Assay in all cases: NCI tumour cell line growth inhibition, 48 h
# HOP-92 NSCLC = system: HOP-92 NSCLC
# T-47D breast = system: T-47D breast
# KM12 colon = system: KM12 colon
# EKVX NSCLC = system: EKVX NSCLC
# SK-OV-3 ovarian = system: SK-OV-3 ovarian
# MALME-3M melanoma = system: MALME-3M melanoma
# SK-MEL-2 melanoma = system: SK-MEL-2 melanoma
# OVCAR-4 ovarian = system: OVCAR-4 ovarian
# 786-0 renal = system: 786-0 renal
# UACC-62 melanoma = system: UACC-62 melanoma
# HCC-2998 colon = system: HCC-2998 colon
Structure (SMILES),TGI (HOP-92 NSCLC) [µM],TGI (T-47D breast) [µM],TGI (KM12 colon) [µM],TGI (EKVX NSCLC) [µM],TGI (SK-OV-3 ovarian) [µM],TGI (MALME-3M melanoma) [µM],TGI (SK-MEL-2 melanoma) [µM],TGI (OVCAR-4 ovarian) [µM],TGI (786-0 renal) [µM],TGI (UACC-62 melanoma) [µM],TGI (HCC-2998 colon) [µM]
C[N+](CCCl)(CCCl)Cc1cccc2cccc([N+](=O)[O-])c12,> 100,> 100,> 100,> 100,> 100,> 100,> 100,> 100,> 100,> 100,–
CC(C)C(=O)[C@@]1(C)SC[C@H]2CCN=C21,75,–,> 100,> 100,> 100,> 100,–,> 100,> 100,> 100,> 100
O=c1[nH]c2c(nc1NC13CC4CC(CC(C4)C1)C3)c(=O)oc1ccccc12,> 100,–,> 100,> 100,> 100,> 100,> 100,–,> 100,> 100,> 100
CN=c1nc2sc3c(c2c(NC(=S)NC)s1)CCCC3,> 100,–,> 100,> 100,> 100,> 100,> 100,> 100,> 100,> 100,> 100
O=C1NC(=O)C(c2c[nH]c3ccccc23)=C1c1cnc[nH]1,> 100,> 100,> 100,> 100,> 100,> 100,> 100,> 100,> 100,–,–
COc1cc(C2SCC(=O)N2c2ccccn2)cc(OC)c1OC (stereo not given),89.2,–,> 100,> 100,> 100,–,> 100,> 100,> 100,> 100,> 100
CNc1ccc(C(=O)CC(O)CCC(C)C2OC(=O)CC(O)CC(=O)CC(O)CC(O)CC(O)CC(O)CC3(O)CC(O)C(C(=O)NCCN(C)C)C(CC(OC4OC(C)C(O)C(NC(=O)CN5CCN(C)CC5)C4O)/C=C/C=C/C=C/C=C\C=C/C=C/C=C/C2C)O3)cc1 (stereo not given),> 100,> 100,–,–,> 100,8.91,> 100,> 100,> 100,> 100,–
CC(C)(C)[Si](OC1CC(n2cnc3c(N)ncnc32)OC1CO)(c1ccccc1)c1ccccc1 (stereo not given),47.3,–,38.9,41.7,32.7,45.9,36.1,28.5,–,–,> 100
CCN(CC)CC1CCCCCCCCCCC1=O (stereo not given),–,–,> 100,> 100,–,> 100,> 100,> 100,> 100,> 100,> 100
Nc1ccc2c(c1)N(C(=O)c1cc3cc(NC(=O)c4cc5ccccc5o4)ccc3[nH]1)CC2CCl (stereo not given),1.47,0.683,2.37,–,> 33.4,0.289,0.398,3.71,> 37.9,0.794,–
CC(=O)c1ccc(NCc2cc(O)ccc2O)cc1,39.2,63.1,34.2,> 100,59.8,–,57.3,34.4,27.7,29.8,–
CC(C)(C)OC(=O)N1CCc2[nH][nH]c(=O)c2C1,> 100,–,> 100,> 100,> 100,> 100,–,> 100,> 100,> 100,–
CCCCc1c(N(C)C)c(OC(C)=O)c(-c2cn(C)c3ccccc23)oc1=O,–,> 100,37.5,> 100,> 100,62.3,40.7,> 100,> 100,40.7,–
OCCCCCCCCCCCOc1ccc(C2OCC3(CO2)COC(c2ccc(OCCCCCCCCCCCO)cc2)OC3)cc1 (stereo not given),–,> 50,> 50,> 50,> 50,> 50,> 50,> 50,> 50,> 50,> 50
COc1cc2cc3c4c(cc(OC)c(OC)c4c2cc1OC)CCN3C(=O)OCCN1CCNCC1,26.2,–,28.3,28.6,31.8,31,34.2,31.3,23.8,28.1,29.8
O=C1C(Cl)N(c2ccc(Cl)cc2)C1c1c[nH]c2ccccc12 (stereo not given),45.3,–,> 100,32.5,–,25.6,29.3,> 100,–,68.8,–
CN(CC(=O)O)c1ncc2c(n1)-c1ccccc1SC2,> 100,–,> 100,> 100,–,> 100,> 100,> 100,> 100,> 100,–

Structure (SMILES),TGI (HOP-92 NSCLC) [µM],TGI (T-47D breast) [µM],TGI (KM12 colon) [µM],TGI (EKVX NSCLC) [µM],TGI (SK-OV-3 ovarian) [µM],TGI (MALME-3M melanoma) [µM],TGI (SK-MEL-2 melanoma) [µM],TGI (OVCAR-4 ovarian) [µM],TGI (786-0 renal) [µM],TGI (UACC-62 melanoma) [µM],TGI (HCC-2998 colon) [µM]
CCCCS(=O)CCC(N)P(=O)(O)O (stereo not given),> 100,> 100,> 100,> 100,> 100,> 100,> 100,> 100,> 100,> 100,–
COc1cccc2c1OC(c1ccc(Cl)cc1)C([N+](=O)[O-])=C2 (stereo not given),–,9.13,4.84,24.2,13.6,5.32,–,6.2,3.63,10.4,–
Cc1cc(N)c(C)c2c1[nH]c1ccc(O)cc12,–,–,> 100,> 100,–,> 100,> 100,> 100,> 100,–,> 100
CS(=O)(=O)O[C@H]1CN2C[C@@H](O)[C@@H](O)[C@H]2[C@H]1CO,–,> 100,> 100,> 100,> 100,> 100,> 100,> 100,> 100,> 100,> 100
CC(=O)O[C@H]1C[C@H]2[C@@H](OC(C)=O)/C=C3\C[C@](C)(C(=O)[C@H](O)C(=C1C)C2(C)C)[C@@H](O)C[C@@H]3OC(=O)[C@H](O)[C@H](c1ccccc1)N(C)C,> 100,> 100,> 100,> 100,> 100,> 100,–,> 100,> 100,> 100,–
Cc1cc2c(cc1Cl)SC(NS(=O)(=O)c1ccc(Cl)cc1)=NS2(=O)=O,39.5,> 100,> 100,> 100,> 100,–,> 100,> 100,> 100,> 100,–
CC(C)(C)[Si](C)(C)OCC1OC(n2ccc(N)nc2=O)C(O[Si](C)(C)C(C)(C)C)C1O[Si](C)(C)C(C)(C)C (stereo not given),4.71,11.6,–,9.83,6.36,4.11,4.89,2.21,3.01,3.64,–
COc1ccc(N2C(=O)CC(C3CC(C(C)(C)C)CCC3=O)C2=O)cc1 (stereo not given),–,> 100,> 100,> 100,> 100,–,–,> 100,> 100,> 100,> 100
CCc1cc2c(oc3cc4ccccc4cc32)c(=O)[nH]1,> 10,–,> 10,> 10,–,> 10,> 10,> 10,> 10,–,> 10
COc1cc(/C=C2\C[C@H]3[C@@H]4CCc5cc(O)ccc5[C@H]4CC[C@]3(C)C2=O)cc(OC)c1OC,–,38.5,38.1,23.7,48.3,13.4,31.9,72.8,57.7,52.2,35.9
O=C(C=P(c1ccccc1)(c1ccccc1)c1ccccc1)c1ccc(-c2cccc([N+](=O)[O-])c2)s1,81.4,–,> 100,> 100,> 100,> 100,–,> 100,> 100,> 100,> 100
COc1ccc(C2COc3cc(OC(C)=O)c(OC(C)=O)cc3C2)cc1 (stereo not given),23.6,–,34,51.1,82.3,44.8,58.7,36.8,–,43.5,48.3
CCOC(=O)C1(C#N)C(c2ccccc2)CC(O)(c2ccc(OC)cc2)C(C(=O)c2ccc(OC)cc2)C1c1ccccc1 (stereo not given),–,–,> 100,> 100,> 100,> 100,> 100,> 100,> 100,> 100,> 100
O=c1cc(N2CCOCC2)[nH]c(=O)n1-c1ccc(F)cc1,–,> 100,> 100,> 100,> 100,> 100,> 100,> 100,> 100,> 100,> 100
c1nc(OCC2CCCCC2)c2[nH]cnc2n1,> 100,–,> 100,> 100,> 100,> 100,> 100,> 100,> 100,> 100,> 100
FC(F)(F)c1ccc(N=C/C=C(/Nc2ccc(C(F)(F)F)cc2)c2ccc(Cl)cc2)cc1,51.4,39.9,28.6,44.4,39.1,40.4,49.6,49.8,37.9,15.6,–
